Source: ChEMBL document CHEMBL1201862, “PubChem BioAssay data set” (2004)
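Values below derive from 48-hour exposures of cells grown in 96-well plates, with endpoints linearly interpolated between the two concentrations bracketing the appropriate inhibition level. At the GI50, growth is halved.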 The source made the active and inactive calls. No stated cut-off is given here; in the data, active = GI50 up to about 1.1 µM and inactive = higher.

How the values were obtained:
Assay in all cases: inhibition of tumour cell growth, NCI panel, 48 h
786-0 = test system: 786-0
CCRF-CEM = test system: CCRF-CEM
DLD-1 = test system: DLD-1
DMS-114 = test system: DMS-114
HL-60 = test system: HL-60
K562 = test system: K562
KM-20L2 = test system: KM-20L2
KM12 = test system: KM12
LOX IMVI = test system: LOX IMVI
M19-MEL = test system: M19-MEL
MDA-MB-435 = test system: MDA-MB-435
NCI-H226 = test system: NCI-H226
NCI-H460 = test system: NCI-H460
NCI-H522 = test system: NCI-H522
NCI/ADR-RES = test system: NCI/ADR-RES
OVCAR-5 = test system: OVCAR-5
SF-539 = test system: SF-539
SNB-78 = test system: SNB-78
TK-10 = test system: TK-10
UACC-62 = test system: UACC-62

Measured: GI50

O=C1C(Nc2ccc(S(=O)(=O)Nc3cnc4ccccc4n3)cc2)=C/C(=N\c2ccc(S(=O)(=O)Nc3cnc4ccccc4n3)cc2)c2ccccc21
inactive: 786-0 17.2 µM | CCRF-CEM 24 µM | DLD-1 17.9 µM | DMS-114 21.2 µM | HL-60 27.9 µM | K562 28.1 µM | KM-20L2 17.7 µM | KM12 16.9 µM | LOX IMVI 16.2 µM | M19-MEL 16.6 µM | MDA-MB-435 18.9 µM | NCI-H226 20.6 µM | NCI-H460 16.7 µM | NCI-H522 16.8 µM | NCI/ADR-RES 44.6 µM | OVCAR-5 16.3 µM | SF-539 18.9 µM | SNB-78 22.5 µM | TK-10 30.7 µM | UACC-62 18.2 µM

CC#CC(OCC)(OCC)OCC
inactive: 786-0 > 100 µM | CCRF-CEM > 100 µM | DLD-1 > 100 µM | DMS-114 25.8 µM | HL-60 > 100 µM | K562 > 100 µM | KM-20L2 > 100 µM | KM12 > 100 µM | LOX IMVI 18.9 µM | M19-MEL > 100 µM | NCI-H226 > 100 µM | NCI-H460 81.8 µM | NCI-H522 53.2 µM | OVCAR-5 > 100 µM | SF-539 > 100 µM | SNB-78 > 100 µM | TK-10 > 100 µM | UACC-62 > 100 µM
